# Measurements as given in patent publication US12263199B2, “Use of Sida rhombifolia” (priority 2019, dated 2025).
# Test system: 5-alpha reductase (5AR)
# Assay: Analysis of the ability of inhibition of 5AR activity (β-NADPH absorbance)
# Assay type: biochemical, Sprague Dawley rats
# Conditions: finasteride 100 uM, rat prostate enzyme source, 7.5 mM testosterone, 30 minutes
# Experimental: In order to prepare the 5AR enzyme source, first, 15-week-old Sprague Dawley rats (obtained from Coretech) were kept under CO2 inhalation anesthesia, and then the prostate tissue was excised. After washing 200 mg of the excised tissue twice with PBS at pH 7.4, 10 ml of lysis buffer {20 mM sodium phosphate containing 0.32 M sucrose and 1 mM ethylenediaminetetraacetic acid (EDTA) at pH 6.5} was added, followed by homogenizing the mixture by a glass homogenizer. The homogenate was centrifuged at 4° C. and 5,000 rpm for 15 minutes to take the supernatant and quantify a protein using Brad Ford reagent, and then the protein was used as a 5AR enzyme source. The remaining homogenate was stored at −70° C.
# The ability to inhibit 5AR activity was measured using the method of Nahata and Dixit {Andrologia, 46(6):592-601, 2014}. In a 96-well plate, the enzyme source (0.8 mg/ml protein) prepared as in 2-2, a solution obtained by dissolving the solvent extract prepared in 2-1. in methanol (50 ug/ml), 7.5 mM testosterone, and 300 uM β-NADPH were reacted at 37° C. Thereafter, absorbance according to the change in the amount of β-NADPH at 350 nm was measured every 5 minutes for a total of 30 minutes. The measurement value was calculated using a standard graph of β-NADPH, and the unit was expressed as pg/ml. […]
smiles,measurement,value
CC(C)(C)NC(=O)[C@H]1CC[C@H]2[C@@H]3CC[C@H]4NC(=O)C=C[C@]4(C)[C@H]3CC[C@]12C [finasteride],concentration of β-NADPH in the reaction solution at the end of the reaction (5AR activity inhibition),concentration of β-NADPH increased compared to that in the negative control group
